{
  "source": "patent US7935482B2",
  "about": "“Gene expression profiling for identification monitoring and treatment of rheumatoid arthritis” (Source Precision Medicine, Inc., priority 2005, dated 2011)",
  "key": {"[1]": {"system": "Inflammation Gene Expression Panel (inflammation index)", "assay": "Inflammation index from whole-blood Gene Expression Profile of RA patients under therapy", "assay_type": "in vivo, human", "details": "for inflammation index compared to normal: clinically stable RA patients, 10 per treatment group, FIGS. 9-11, Remicade: all but one of the patients", "excerpt": "The values Ci and P(i) may be determined in a number of ways, so that the index I is informative of the pertinent biological condition. One way is to apply statistical techniques, such as latent class modeling, to the profile data sets to correlate clinical data or experimentally derived data, or other data pertinent to the biological condition. In this connection, for example, may be employed the software from Statistical Innovations, Belmont, Mass., called Latent Gold®. Alternatively, other simpler modeling techniques may be employed in a manner known in the art. The index function for inflammation may be constructed, for example, in a manner that a greater degree of inflammation (as determined by the profile data set for the Inflammation Gene Expression Panel included in Tables 1 and 2) correlates with a large value of the index function. In a simple embodiment, therefore, each P(i) may be +1 or −1, depending on whether the constituent increases or decreases with increasing inflammation. As discussed in further detail below, a meaningful inflammation index that is proportional to the expression, referred to herein as IR-105, was constructed as follows: ¼{IL1A}+¼{IL1B}+¼{TNF}+¼{INFG}[…],\nFIG. 4A further illustrates the consistency of inflammatory gene expression, illustrated here with respect to 7 loci of (of the Inflammation Gene Expression Panel included in Tables 1 and 2), in a set of 44 normal, undiagnosed blood donors. For each individual locus is shown the range of values lying within ±2 standard deviations of the mean expression value, which corresponds to 95% of a normally distributed population. Notwithstanding the great width of the confidence interval (95%), the measured gene expression value (ΔCt)—remarkably—still lies within 10% of the mean, regardless of the expression level involved. As described in further detail below, for a given biological condition an index can be constructed to provide a measurement of the condition. This is possible as a result of the conjunction of two circumstances: (i) there is a remarkable consistency of Gene Expression Profiles with respect to a biological condition across a population and (ii) there can be employed procedures that provide substantially reproducible measurement of constituents in a Gene Expression Panel giving rise to a Gene Expression Profile, under measurement conditions wherein specificity and efficiencies of amplification for all constituents of the panel are substantially similar and which therefore provides a measurement of a biological condition. Accordingly, a function of the expression values of representative constituent loci of FIG. 4A is here used to generate an inflammation index value, which is normalized so that a reading of 1 corresponds to constituent expression values of healthy subjects, as shown in the right-hand portion of FIG. 4A.\nFIG. 4C illustrates the use of the same index as FIG. 4B, where the inflammation median for a normal population of subjects has been set to zero and both normal and diseased subjects are plotted in standard deviation units relative to that median. An inflammation index value was determined for each member of a normal, undiagnosed population of 70 individuals (black bars). The resulting distribution of index values, shown in FIG. 4C, can be seen to approximate closely a normal distribution. Similarly, index values were calculated for individuals from two diseased population groups, (1) rheumatoid arthritis patients treated with methotrexate (MTX) who are about to change therapy to more efficacious drugs (e.g., TNF inhibitors)(hatched bars), and (2) rheumatoid arthritis patients treated with disease modifying anti-rheumatoid drugs (DMARDS) other than MTX, who are about to change therapy to more efficacious drugs (e.g., MTX). […] This figure thus illustrates the utility of an index to derived from Gene Expression Profile data to evaluate disease status and to provide an objective and quantifiable treatment objective. […]"}, "[2]": {"assay": "Clinical assessment of RA patients during therapy (DAS, SJC, TJ, MDAD, HAQ)", "assay_type": "in vivo, human", "details": "22 RA patients pooled over both regimens, FIG. 23; for Disease Activity Score (DAS): baseline 6.51"}, "[3]": {"system": "Inflammation Gene Expression Panel", "assay": "Quantitative RT-PCR gene expression in whole blood of treated RA patients relative to normal mean", "assay_type": "in vivo, human", "details": "22 patients pooled", "excerpt": "For measuring the amount of a particular RNA in a sample, methods known to one of ordinary skill in the art were used to extract and quantify transcribed RNA from a sample with respect to a constituent of a Gene Expression Panel. (See detailed protocols below. Also see PCT application publication number WO 98/24935 herein incorporated by reference for RNA analysis protocols). Briefly, RNA is extracted from a sample such as a tissue, body fluid, or culture medium in which a population of cells of a subject might be growing. For example, cells may be lysed and RNA eluted in a suitable solution in which to conduct a DNAse reaction. First strand synthesis may be performed using a reverse transcriptase. Gene amplification, more specifically quantitative PCR assays, can then be conducted and the gene of interest calibrated against an internal marker such as 18S rRNA (Hirayama et al., Blood 92, 1998: 46-52). Any other endogenous marker can be used, such as 28S-25S rRNA and 5S rRNA. Samples are measured in multiple replicates, for example, 3 replicates. In an embodiment of the invention, quantitative PCR is performed using amplification, reporting agents and instruments such as those supplied commercially by Applied Biosystems (Foster City, Calif.). Given a defined efficiency of amplification of target transcripts, the point (e.g., cycle number) that signal from amplified target template is detectable may be directly related to the amount of specific message transcript in the measured sample. Similarly, other quantifiable signals such as fluorescence, enzyme activity, disintegrations per minute, absorbance, etc., when correlated to a known concentration of target templates (e.g., a reference standard curve) or normalized to a standard with limited variability can be used to quantify the number of target templates in an unknown sample.\nAs part of a larger international study involving patients with rheumatoid arthritis, the subject was followed over a twelve-week period. The subject was enrolled in the study because of a failure to respond to conservative drug therapy for rheumatoid arthritis and a plan to change therapy and begin immediate treatment with a TNF-inhibiting compound. Blood was drawn from the subject prior to initiation of new therapy (visit 1). After initiation of new TNF-inhibiting therapy, blood was drawn at 4 weeks post change in therapy (visit 2), 8 weeks (visit 3), and 12 weeks (visit 4) following the start of new therapy. Blood was collected using the PAXgene Blood RNA System™, held at room temperature for two hours and then frozen at −30° C.\nFrozen samples were shipped to the central laboratory at Source Precision Medicine, the assignee herein, in Boulder, Colo. for determination of expression levels of genes in the 48-gene inflammation gene expression panel included in Tables 1 and 2. The blood samples were thawed and RNA extracted according to the manufacturer's recommended procedure. RNA was converted to cDNA and the level of expression of the 48 inflammatory genes was determined. Expression results are shown for 11 of the 48 loci in FIG. 3. […] Similarly, gene expression levels at each of the subsequent physician visits for each locus are compared to the same normal average value. […] In each visit following the change in the therapy, the level of inflammatory gene expression for 10 of the 11 loci is closer to the cognate locus average previously determined for the normal (i.e., undiagnosed, healthy) patient set. […]"}, "[4]": {"details": "human, in vivo; cited from earlier work"}, "[5]": {"details": "end of the study, 12 genes examined, FIG. 17"}},
  "data": [
    {"compound": "CN(Cc1cnc2nc(N)nc(N)c2n1)c1ccc(C(=O)N[C@@H](CCC(=O)O)C(=O)O)cc1", "note": "[methotrexate]", "values": [
      {"measurement": "distribution of inflammation index values in comparison to the normal distribution", "setting": "[1]; RA patients about to change therapy to more efficacious drugs, FIG. 4C", "value": "skewed upward"},
      {"measurement": "inflammation index compared to normal", "setting": "[1]", "value": "elevated compared to normal"}
    ]},
    {"compound": "anakinra [kineret]", "values": [
      {"measurement": "joint counts, MD assessment and patient self-score over the course of the study", "setting": "[2]", "value": "all went down"},
      {"measurement": "Disease Activity Score (DAS)", "setting": "[2]; after 4 weeks", "value": 5.35},
      {"measurement": "Disease Activity Score (DAS)", "setting": "[2]; end of the study", "value": 4.88},
      {"measurement": "number of genes still over-expressed to some extent", "setting": "[3]; [5]", "value": 7},
      {"measurement": "number of genes transitioned to the under-expressed category", "setting": "[3]; [5]", "value": 4},
      {"measurement": "expression of PTGS2 (COX2) versus normal", "setting": "[3]; end of the study, FIG. 17", "value": "not statistically significantly different from normal"},
      {"measurement": "values of CD19 expression versus normals", "setting": "[3]; from the start of the study until the end, FIG. 17", "value": "all under-expressed"},
      {"measurement": "relative expression of the genes overexpressed at start (11 of 12 genes) versus normals", "setting": "[3]; week 4, normals n=69, FIG. 17", "value": "still over-expressed at week 4 but less so"}
    ]},
    {"compound": "etanercept [Enbrel]", "values": [
      {"measurement": "patients with inflammation index in the normal range", "setting": "[1]; 10 clinically stable RA patients, FIG. 10", "value": 80, "unit": "%"},
      {"measurement": "inflammation index compared to normal", "setting": "[1]", "value": "comes much closer to normal"}
    ]},
    {"compound": "infliximab [Remicade]", "values": [
      {"measurement": "association with serious infections", "setting": "[4]", "value": "associated with serious infections in some subjects"},
      {"measurement": "abnormally low inflammation index in two of the patients", "setting": "[1]; 10 clinically stable RA patients, FIG. 11", "value": "suggesting an immunosuppressive response"},
      {"measurement": "inflammation index compared to normal", "setting": "[1]", "value": "at or below normal"}
    ]}
  ]
}
